Laboratory results: PubChem BioAssay AID1963852 (Molecular Pharmacology Branch, DTP, NCI, 2024)
pIC50: −log10 of the molar value.

Tested on: 282377-053-R-J1-PDC complex spheroid viability
Assay: Anticancer human tumor 282377-053-R-J1-PDC patient-derived colon adenocarcinoma cell line growth inhibition [POLQ]
Conditions: for pIC50: curve of first compound; for viability, T/C: stronger effect = lower value
Procedure, shortened: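 Patient-derived tumour cells were co-cultured with HUVEC and mesenchymal stem cells as multicellular spheroids at 37 °C. They were treated with POLQ inhibitors (novobiocin, ART-558, RP6685) alone or combined with other agents. Top concentrations were at or near clinical Cmax (otherwise 10 microM; SN-38 at 1 microM), decreasing in half-log steps.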

[1] = second compound 0.0316 µM, first compound 0.0316 µM
[2] = second compound 0.0316 µM, first compound 0.1 µM
[3] = second compound 0.0316 µM, first compound 0.316 µM
[4] = second compound 0.0316 µM, first compound 1 µM
[5] = second compound 0.0316 µM, first compound 3.16 µM
[6] = second compound 0.0316 µM, first compound 10 µM
[7] = second compound 0.1 µM, first compound 0.0316 µM
[8] = second compound 0.1 µM, first compound 0.1 µM
[9] = second compound 0.1 µM, first compound 0.316 µM
[10] = second compound 0.1 µM, first compound 1 µM
[11] = second compound 0.1 µM, first compound 3.16 µM
[12] = second compound 0.1 µM, first compound 10 µM
[13] = second compound 0.316 µM, first compound 0.0316 µM
[14] = second compound 0.316 µM, first compound 0.1 µM
[15] = second compound 0.316 µM, first compound 0.316 µM
[16] = second compound 0.316 µM, first compound 1 µM
[17] = second compound 0.316 µM, first compound 3.16 µM
[18] = second compound 0.316 µM, first compound 10 µM
[19] = second compound 1 µM, first compound 0.0316 µM
[20] = second compound 1 µM, first compound 0.1 µM
[21] = second compound 1 µM, first compound 0.316 µM
[22] = second compound 1 µM, first compound 1 µM
[23] = second compound 1 µM, first compound 3.16 µM
[24] = second compound 1 µM, first compound 10 µM
[25] = second compound 3.16 µM, first compound 0.0316 µM
[26] = second compound 3.16 µM, first compound 0.1 µM
[27] = second compound 3.16 µM, first compound 0.316 µM
[28] = second compound 3.16 µM, first compound 1 µM
[29] = second compound 3.16 µM, first compound 3.16 µM
[30] = second compound 3.16 µM, first compound 10 µM
[31] = second compound 10 µM, first compound 0.0316 µM
[32] = second compound 10 µM, first compound 0.1 µM
[33] = second compound 10 µM, first compound 0.316 µM
[34] = second compound 10 µM, first compound 1 µM
[35] = second compound 10 µM, first compound 3.16 µM
[36] = second compound 10 µM, first compound 10 µM
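Also: spheroids exposed to compounds for seven days.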
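For viability, T/C in this document: 100% = DMSO vehicle control viability.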

CC(C)n1c(=O)n(C)c2cnc3cc(F)c(-c4ccc(OCCCN5CCCCC5)nc4)cc3c21 + COC1C(OC(N)=O)C(O)C(Oc2ccc3c(O)c(NC(=O)c4ccc(O)c(CC=C(C)C)c4)c(=O)oc3c2C)OC1(C)C
pIC50 (second compound 0.0316 µM): < 5.00
pIC50 (second compound 0.1 µM): < 5.00
pIC50 (second compound 0.316 µM): < 5.00
pIC50 (second compound 1 µM): < 5.00
pIC50 (second compound 3.16 µM): < 5.00
pIC50 (second compound 10 µM): < 5.00
viability, T/C [1]: 116%
viability, T/C [2]: 125%
viability, T/C [3]: 113%
viability, T/C [4]: 104%
viability, T/C [5]: 112%
viability, T/C [6]: 120%
viability, T/C [7]: 107%
viability, T/C [8]: 116%
viability, T/C [9]: 110%
viability, T/C [10]: 104%
viability, T/C [11]: 118%
viability, T/C [12]: 103%
viability, T/C [13]: 108%
viability, T/C [14]: 93%
viability, T/C [15]: 105%
viability, T/C [16]: 108%
viability, T/C [17]: 107%
viability, T/C [18]: 89.6%
viability, T/C [19]: 112%
viability, T/C [20]: 88.4%
viability, T/C [21]: 99.5%
viability, T/C [22]: 106%
viability, T/C [23]: 119%
viability, T/C [24]: 78.4%
viability, T/C [25]: 113%
viability, T/C [26]: 114%
viability, T/C [27]: 108%
viability, T/C [28]: 114%
viability, T/C [29]: 106%
viability, T/C [30]: 101%
viability, T/C [31]: 98.2%
viability, T/C [32]: 104%
viability, T/C [33]: 93.8%
viability, T/C [34]: 99.2%
viability, T/C [35]: 95.8%
viability, T/C [36]: 98.8%

CC1COCCN1c1cc(-c2ccnn2C)c2ccnc(-c3ccn[nH]3)c2n1 (stereo unspecified) + COC1C(OC(N)=O)C(O)C(Oc2ccc3c(O)c(NC(=O)c4ccc(O)c(CC=C(C)C)c4)c(=O)oc3c2C)OC1(C)C
pIC50 (second compound 0.0316 µM): 6.42
pIC50 (second compound 0.1 µM): 6.40
pIC50 (second compound 0.316 µM): 6.23
pIC50 (second compound 1 µM): 6.17
pIC50 (second compound 3.16 µM): 6.35
pIC50 (second compound 10 µM): 6.19
viability, T/C [1]: 107%
viability, T/C [2]: 99.6%
viability, T/C [3]: 52.5%
viability, T/C [4]: 34.2%
viability, T/C [5]: 26.9%
viability, T/C [6]: 25.4%
viability, T/C [7]: 95.2%
viability, T/C [8]: 80.5%
viability, T/C [9]: 52.7%
viability, T/C [10]: 36.5%
viability, T/C [11]: 33.9%
viability, T/C [12]: 27.6%
viability, T/C [13]: 95.6%
viability, T/C [14]: 87.5%
viability, T/C [15]: 59.9%
viability, T/C [16]: 41.1%
viability, T/C [17]: 25.9%
viability, T/C [18]: 20.4%
viability, T/C [19]: 89.1%
viability, T/C [20]: 85.3%
viability, T/C [21]: 68.4%
viability, T/C [22]: 40%
viability, T/C [23]: 27.4%
viability, T/C [24]: 21.4%
viability, T/C [25]: 102%
viability, T/C [26]: 94.8%
viability, T/C [27]: 57.3%
viability, T/C [28]: 32.5%
viability, T/C [29]: 26.5%
viability, T/C [30]: 22.6%
viability, T/C [31]: 121%
viability, T/C [32]: 80.8%
viability, T/C [33]: 66.7%
viability, T/C [34]: 39.7%
viability, T/C [35]: 33.3%
viability, T/C [36]: 21.8%

CC1COCCN1c1cc(C2(S(C)(=N)=O)CC2)nc(-c2ccnc3[nH]ccc23)n1 (stereo unspecified) + COC1C(OC(N)=O)C(O)C(Oc2ccc3c(O)c(NC(=O)c4ccc(O)c(CC=C(C)C)c4)c(=O)oc3c2C)OC1(C)C
pIC50 (second compound 0.0316 µM): < 5.00
pIC50 (second compound 0.1 µM): 5.26
pIC50 (second compound 0.316 µM): 5.18
pIC50 (second compound 1 µM): 5.12
pIC50 (second compound 3.16 µM): 5.16
pIC50 (second compound 10 µM): 5.00
viability, T/C [1]: 108%
viability, T/C [2]: 89.1%
viability, T/C [3]: 110%
viability, T/C [4]: 76.9%
viability, T/C [5]: 74.9%
viability, T/C [6]: 56.7%
viability, T/C [7]: 92.4%
viability, T/C [8]: 104%
viability, T/C [9]: 88.5%
viability, T/C [10]: 72.1%
viability, T/C [11]: 61.9%
viability, T/C [12]: 39.6%
viability, T/C [13]: 103%
viability, T/C [14]: 82.1%
viability, T/C [15]: 83.6%
viability, T/C [16]: 81%
viability, T/C [17]: 80.4%
viability, T/C [18]: 33.9%
viability, T/C [19]: 115%
viability, T/C [20]: 90.2%
viability, T/C [21]: 91.5%
viability, T/C [22]: 81%
viability, T/C [23]: 79.5%
viability, T/C [24]: 39.9%
viability, T/C [25]: 99%
viability, T/C [26]: 93.3%
viability, T/C [27]: 85.3%
viability, T/C [28]: 107%
viability, T/C [29]: 59.6%
viability, T/C [30]: 45.3%
viability, T/C [31]: 104%
viability, T/C [32]: 119%
viability, T/C [33]: 79.8%
viability, T/C [34]: 92.3%
viability, T/C [35]: 66.1%
viability, T/C [36]: 49.7%
